This is an account of results in PubChem BioAssay AID192 (DTP/NCI, 2004).

For the experiment, the system named is BDF1 mice, B16 melanoma ip, median survival T/C. The experiment is described as follows: NCI In Vivo Anticancer Drug Screen. Data for tumor model B16 Melanoma (intraperitoneal) in B6D2F1 (BDF1) mice. As to conditions: endpoint: median survival time, higher = longer survival. Summed up:
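Transplantable tumor model; survival or tumor size measured; reported as T/C, treated over vehicle control.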

[1] abbreviates: dose: 100.0 mg/kg/injection, schedule: Q01DX009 (ip), vehicle: Klucel (hydroxypropylcellulose) (HPC).
The mark [2] stands for this setting: dose: 200.0 mg/kg/injection, schedule: Q01DX009 (ip), vehicle: Klucel (hydroxypropylcellulose) (HPC).
Where [3] appears, read: dose: 6.25 mg/kg/injection, schedule: Q01DX009 (ip), vehicle: distilled water + Tween-80.
The mark [4] stands for this setting: dose: 12.5 mg/kg/injection, schedule: Q01DX009 (ip), vehicle: distilled water + Tween-80.
Setting [5] is: dose: 25.0 mg/kg/injection, schedule: Q01DX009 (ip), vehicle: distilled water + Tween-80.
Setting [6] is: dose: 12.5 mg/kg/injection, schedule: Q01DX009 (ip), vehicle: Klucel (hydroxypropylcellulose) (HPC).
Setting [7] is: dose: 25.0 mg/kg/injection, schedule: Q01DX009 (ip), vehicle: Klucel (hydroxypropylcellulose) (HPC).
Setting [8] is: dose: 50.0 mg/kg/injection, schedule: Q01DX009 (ip), vehicle: Klucel (hydroxypropylcellulose) (HPC).
Where [9] appears, read: dose: 0.5 mg/kg/injection, schedule: Q01DX009 (ip), vehicle: saline.
[10] abbreviates: dose: 1.0 mg/kg/injection, schedule: Q01DX009 (ip), vehicle: saline.
[11] abbreviates: dose: 2.0 mg/kg/injection, schedule: Q01DX009 (ip), vehicle: saline.
The mark [12] stands for this setting: dose: 25.0 mg/kg/injection, schedule: Q01DX009 (ip), vehicle: saline with Tween-80.
Setting [13] is: dose: 50.0 mg/kg/injection, schedule: Q01DX009 (ip), vehicle: saline with Tween-80.
Setting [14] is: dose: 100.0 mg/kg/injection, schedule: Q01DX009 (ip), vehicle: saline with Tween-80.
Setting [15] is: dose: 400.0 mg/kg/injection, schedule: Q01DX009 (ip), vehicle: saline with Tween-80.

Values joined by “and” are separate entries in the source; they are usually repeats but may differ in a detail not shown here. Identical values can stand only once. Toxic doses and inconclusive results are not listed.

Take `CCc1c2cc(OC)c(OC)cc2cc2c3cc(OC)c(OC)cc3cc[n+]12` (tested in a mixture with another compound): the T/C by setting is: (dose: 4.8 mg/kg/injection, schedule: Q01DX009 (ip), vehicle: saline) 98 % of control; (dose: 9.5 mg/kg/injection, schedule: Q01DX009 (ip), vehicle: saline) 98 % of control; (dose: 19.0 mg/kg/injection, schedule: Q01DX009 (ip), vehicle: saline) 99 % of control; (dose: 37.5 mg/kg/injection, schedule: Q01DX009 (ip), vehicle: saline with Tween-80) 117 % of control; (dose: 38.0 mg/kg/injection, schedule: Q01DX009 (ip), vehicle: saline) 95 % of control; (dose: 75.0 mg/kg/injection, schedule: Q01DX009 (ip), vehicle: saline with Tween-80) 108 % of control. Further, the T/C (dose: 150.0 mg/kg/injection, schedule: Q01DX009 (ip), vehicle: saline with Tween-80) was 98 % of control.
`CN(C)CC(C(=O)Cc1ccccc1)c1ccccc1` (stereo unspecified): the T/C was 93 % of control (dose: 25.0 mg/kg/injection, schedule: Q01DX009 (ip), vehicle: saline); 88 % of control (dose: 50.0 mg/kg/injection, schedule: Q01DX009 (ip), vehicle: saline); 97 % of control (dose: 100.0 mg/kg/injection, schedule: Q01DX009 (ip), vehicle: saline).
In the case of `NC(CC(=O)O)CC(=O)O`, the T/C is, setting by setting: (dose: 25.0 mg/kg/injection, schedule: Q01DX009 (ip), vehicle: suspension in saline) 91 % of control; (dose: 50.0 mg/kg/injection, schedule: Q01DX009 (ip), vehicle: suspension in saline) 92 % of control; (dose: 100.0 mg/kg/injection, schedule: Q01DX009 (ip), vehicle: suspension in saline) 103 % of control; (dose: 200.0 mg/kg/injection, schedule: Q01DX009 (ip), vehicle: suspension in saline) 100 % of control; (dose: 400.0 mg/kg/injection, schedule: Q01DX009 (ip), vehicle: suspension in saline) 90 % of control.
`COC(=O)C1C(O)C(C)C(=O)C(C)/C=C\C=C(C)C(=O)Nc2c(C)c(OC(C)=O)c3c(c2O)C(=O)C(C)=C2OCOC(=C23)C(C)=CC(C)(O)C(O)C(C)C1O` (stereo unspecified): the T/C reads like this: under setting [1], 89 % of control; under setting [2], 89 % of control.
For the compound `CNC(=O)OCc1c(COC(=O)NC)c(-c2ccccc2)n(C)c1-c1ccccc1`, the T/C is, setting by setting: (dose: 3.12 mg/kg/injection, schedule: Q01DX009 (ip), vehicle: distilled water + Tween-80) 161 % of control; under setting [3], 159 % of control; under setting [4], 166 % of control; under setting [5], 206 % of control.
Take `CCOC(=O)c1cnc(SC)nc1Nc1c(Br)cc(Br)cc1Br`: the T/C by setting is: under setting [6], 106 % of control; under setting [7], 109 % of control; under setting [8], 106 % of control.
For `C[C@]12CC[C@H](OC3OC(CO)C(O)C(O)C3O)C[C@H]1CC[C@@H]1[C@@H]2CC[C@]2(C)[C@@H](C3=CCOC3=O)CC[C@]12O` (stereo partly specified), the T/C under setting [9] is 107 % of control, the T/C under setting [10] is 92 % of control and the T/C under setting [11] is 105 % of control.
Turning to `COc1c(C)c2c(c(O)c1C/C=C(\C)CCC(=O)O)C(=O)OC2`, the T/C was 96 % of control under setting [3]; 95 % of control under setting [4]; 107 % of control under setting [5]; 94 % of control (dose: 50.0 mg/kg/injection, schedule: Q01DX009 (ip), vehicle: distilled water + Tween-80); 104 % of control (dose: 100.0 mg/kg/injection, schedule: Q01DX009 (ip), vehicle: distilled water + Tween-80); 104 % of control (dose: 200.0 mg/kg/injection, schedule: Q01DX009 (ip), vehicle: distilled water + Tween-80).
As to `OC1CC2CCC(C1)N2CCCN1c2ccccc2Sc2ccc(Cl)cc21` (stereo unspecified), the T/C reads like this: (dose: 25.0 mg/kg/injection, schedule: Q04DX003 (ip), vehicle: saline) 97 % of control; (dose: 50.0 mg/kg/injection, schedule: Q04DX003 (ip), vehicle: saline) 90 % of control; (dose: 100.0 mg/kg/injection, schedule: Q04DX003 (ip), vehicle: saline) 93 % of control; (dose: 200.0 mg/kg/injection, schedule: Q04DX003 (ip), vehicle: saline) 88 % of control.
`CC1(C)OC2OC(COC(=O)c3ccccc3)C(=O)C2O1` (stereo unspecified): the T/C by setting is: under setting [12], 94 % of control; under setting [13], 97 % of control; under setting [14], 93 % of control; under setting [15], 88 % of control.
With `CCN(CC)C(=O)c1ccc(C(Cl)(Cl)Cl)cc1`, the T/C by setting is: (dose: 6.25 mg/kg/injection, schedule: Q01DX009 (ip), vehicle: saline with Tween-80) 95 % of control; (dose: 12.5 mg/kg/injection, schedule: Q01DX009 (ip), vehicle: saline with Tween-80) 98 % of control; under setting [12], 90 % of control and 92 % of control.
Turning to `O=C(CCCN1CC=C(n2c(=O)[nH]c3ccccc32)CC1)c1ccc(F)cc1`, the T/C is 92 % of control (dose: 3.12 mg/kg/injection, schedule: Q01DX009 (ip), vehicle: Klucel (hydroxypropylcellulose) (HPC)); 92 % of control and 95 % of control (dose: 6.25 mg/kg/injection, schedule: Q01DX009 (ip), vehicle: Klucel (hydroxypropylcellulose) (HPC)); 98 % of control under setting [6]; 90 % of control and 95 % of control under setting [7]; 97 % of control under setting [8]; 93 % of control under setting [1]. Further, the T/C under setting [2] was 95 % of control.
`CN(CC(=O)NC(Cc1c[nH]c2ccccc12)C(=O)O)C(=O)OCc1ccccc1` (stereo unspecified): the T/C is 113 % of control under setting [13]; 106 % of control under setting [14]; 104 % of control (dose: 200.0 mg/kg/injection, schedule: Q01DX009 (ip), vehicle: saline with Tween-80); 100 % of control under setting [15].
For `C1CN(P2(N3CC3)=NP(N3CC3)(N3CC3)=NP(N3CC3)(N3CC3)=N2)CCO1` (stereo unspecified), the T/C reads like this: (dose: 0.25 mg/kg/injection, schedule: Q01DX009 (ip), vehicle: saline) 101 % of control; under setting [9], 117 % of control; under setting [10], 117 % of control; (dose: 1.0 mg/kg/injection, schedule: Q02DX009 (ip), vehicle: saline) 98 % of control and 104 % of control; under setting [11], 120 % of control; (dose: 2.0 mg/kg/injection, schedule: Q02DX009 (ip), vehicle: saline) 98 % of control and 121 % of control. For the same compound, the T/C by setting is: (dose: 3.13 mg/kg/injection, schedule: Q01DX009 (ip), vehicle: saline) 111 % of control and 112 % of control; (dose: 3.13 mg/kg/injection, schedule: Q02DX009 (ip), vehicle: saline) 110 % of control and 115 % of control; (dose: 4.0 mg/kg/injection, schedule: Q01DX009 (ip), vehicle: saline) 116 % of control; (dose: 4.0 mg/kg/injection, schedule: Q02DX009 (ip), vehicle: saline) 106 % of control and 122 % of control; (dose: 6.25 mg/kg/injection, schedule: Q02DX009 (ip), vehicle: saline) 93 % of control; (dose: 8.0 mg/kg/injection, schedule: Q02DX009 (ip), vehicle: saline) 108 % of control. Further, the T/C is, setting by setting: (dose: 12.5 mg/kg/injection, schedule: Q02DX009 (ip), vehicle: saline) 154 % of control and 156 % of control; (dose: 16.0 mg/kg/injection, schedule: Q02DX009 (ip), vehicle: saline) 151 % of control and 171 % of control; (dose: 25.0 mg/kg/injection, schedule: Q02DX009 (ip), vehicle: saline) 164 % of control and 186 % of control and 200 % of control.
Take `Cc1ccc2c(C)c3c(ccc4ccccc43)c[n+]2c1`: the T/C was 100 % of control (dose: 1.25 mg/kg/injection, schedule: Q01DX009 (ip), vehicle: saline); 95 % of control (dose: 2.5 mg/kg/injection, schedule: Q01DX009 (ip), vehicle: saline with Tween-80); 100 % of control (dose: 2.5 mg/kg/injection, schedule: Q01DX009 (ip), vehicle: saline); 95 % of control (dose: 5.0 mg/kg/injection, schedule: Q01DX009 (ip), vehicle: saline with Tween-80); 100 % of control (dose: 5.0 mg/kg/injection, schedule: Q01DX009 (ip), vehicle: saline); 105 % of control (dose: 10.0 mg/kg/injection, schedule: Q01DX009 (ip), vehicle: saline).
